Reference: publication PMC10303271, “Synthesis and Receptor Binding Studies of α5 GABAAR Selective Novel Imidazodiazepines Targeted for Psychiatric and Cognitive Disorders” (Molecules, 2023)
Where two headings read alike, the source gives them in different places.

Assays:
Alpha2A = biological target: T1, Alpha2A (Homo sapiens, UniProt P08913); assay: PDSP primary binding Alpha2A; conditions: 1.5 h; primary binding, 10,000 nM; last figure of the line = mean of the 4 before it; read-out: Alpha2A, PDSP raw data, mean
T1 construct: purchased NIMH Psychoactive Drug Screening Program (PDSP)
T1 sequence (P08913 1-465): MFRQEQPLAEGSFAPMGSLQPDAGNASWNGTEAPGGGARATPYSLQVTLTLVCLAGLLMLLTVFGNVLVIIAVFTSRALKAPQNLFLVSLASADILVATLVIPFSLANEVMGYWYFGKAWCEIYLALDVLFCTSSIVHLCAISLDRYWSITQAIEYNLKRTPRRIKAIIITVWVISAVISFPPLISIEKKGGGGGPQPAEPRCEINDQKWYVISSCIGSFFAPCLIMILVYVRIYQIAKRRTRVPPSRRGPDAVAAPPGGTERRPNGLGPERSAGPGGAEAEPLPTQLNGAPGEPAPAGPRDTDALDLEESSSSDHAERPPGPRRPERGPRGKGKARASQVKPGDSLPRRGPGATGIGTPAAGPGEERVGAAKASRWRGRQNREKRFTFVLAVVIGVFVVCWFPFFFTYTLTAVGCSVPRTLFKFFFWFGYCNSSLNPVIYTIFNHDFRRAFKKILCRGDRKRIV
Method: (§1) To determine if any off-target receptor-binding effects are present, all the novel ligands were sent to the National Institute of Mental Health (NIMH), Psychoactive Drug Screening Program (PDSP). The ligands were screened over a panel of 47 receptors, ion channels, and transporters to determine any other possible interactions with […]. The hERG-binding was also determined. […] No binding of the test compounds to calcium channels was observed. […] It is necessary to screen the compounds for hERG-binding during the early process of drug discovery. The unintentional binding of many drugs to hERG can cause blockade of hERG K+ channels in the heart, which can cause many side effects including cardiac arrhythmias and sudden death. […] All of the α5 imidazodiazepines were tested for hERG-binding.
(§2) The NIMH PDSP assay protocol book [https://kidbdev.med.unc.edu/databases/PDSP%20Protocols%20II%202013-03-28.pdf accessed on 23 April 2023]. describes the protocols for primary and secondary radio-ligand binding assays. These assays were carried out in a final volume of 125 µL per well in the appropriate binding buffer.
(§3) The binding of a ligand to a receptor, ion channel, or transporter was determined in the […] of 10 µM of the appropriate reference compound. […] Plates were incubated in the dark for 90 min at rt, and the reactions were stopped by vacuum filtration onto 0.3% polyethyleneimine (PEI) soaked 96-well filter mats using a 96-well Filtermateharvester. This was followed by three washes with cold PBS buffer. Radioactivity was then counted on a Microbeta counter. Nonlinear regression was used to analyze the data with N = 6 replicates.

NMDA = assay: PDSP primary binding NMDA; conditions: primary binding, 10,000 nM; last figure of the line = mean of the 4 before it
Method: as §1, §2, §3

MOR = biological target: T2, MOR (Homo sapiens, UniProt P35372); assay: PDSP radioligand binding at MOR; conditions: 1.5 h
T2 construct: purchased NIMH Psychoactive Drug Screening Program (PDSP)
Description: Opioid receptors are a family of inhibitory G-coupled protein receptors where opioids act as the ligand. The kappa opioid receptors (KOR), µ and δ opioid receptors (MOR and DOR), and nociception opioid receptor (NOP) fall under the family of opioids receptors. It has been reported that oxadiazole imidazodiazepines can mediate analgesic and anti-inflammatory properties mediated also by the κ opioid receptor (KOR). The binding at KOR is usually silent. The affinities of the test compounds for KOR, DOR, and MOR were determined using radioligand binding assays at a screening concentration of 10,000 nM in collaboration with the National Institute of Mental Health’s Psychoactive Drug Screening Program (PDSP), as mentioned before. Concentration-dependent experiments were conducted to determine Ki values for the compounds that exceeded more than 50% radioligand displacement in primary binding assays.
as §2, §3

Sigma 2 = assay: PDSP primary binding Sigma 2; conditions: primary binding, 10,000 nM; last figure of the line = mean of the 4 before it
Method: as §1, §2, §3

5-HT2A = biological target: T3, 5-HT2A (Homo sapiens, UniProt P28223); assay: PDSP primary binding 5-HT2A; conditions: 1.5 h; primary binding, 10,000 nM; last figure of the line = mean of the 4 before it; read-out: 5-HT2A, PDSP raw data, mean
T3 construct: purchased NIMH Psychoactive Drug Screening Program (PDSP)
Method: as §1, §2, §3

5-HT1E = biological target: T4, 5-HT1E (Homo sapiens, UniProt P28566); assay: PDSP primary binding 5-HT1E; conditions: primary binding, 10,000 nM; last figure of the line = mean of the 4 before it
T4 construct: purchased NIMH Psychoactive Drug Screening Program (PDSP)
Method: as §1, §2, §3

NTS1 = biological target: T5, NTS1 (Homo sapiens, UniProt P30989); assay: PDSP primary binding NTS1; conditions: primary binding, 10,000 nM; last figure of the line = mean of the 4 before it; read-out: NTS1, PDSP raw data, mean
T5 construct: purchased NIMH Psychoactive Drug Screening Program (PDSP)
Method: as §1, §2, §3

D3 = biological target: T6, D3 (Homo sapiens, UniProt P35462); assay: PDSP primary binding D3; conditions: 1.5 h; primary binding, 10,000 nM; last figure of the line = mean of the 4 before it; read-out: D3, PDSP raw data, mean
T6 construct: purchased NIMH Psychoactive Drug Screening Program (PDSP)
Method: as §1, §2, §3

M4 = biological target: T7, M4 (Homo sapiens, UniProt P08173); assay: PDSP primary binding M4; conditions: primary binding, 10,000 nM; last figure of the line = mean of the 4 before it; read-out: M4, PDSP raw data, mean
T7 construct: purchased NIMH Psychoactive Drug Screening Program (PDSP)
T7 sequence (P08173 1-479): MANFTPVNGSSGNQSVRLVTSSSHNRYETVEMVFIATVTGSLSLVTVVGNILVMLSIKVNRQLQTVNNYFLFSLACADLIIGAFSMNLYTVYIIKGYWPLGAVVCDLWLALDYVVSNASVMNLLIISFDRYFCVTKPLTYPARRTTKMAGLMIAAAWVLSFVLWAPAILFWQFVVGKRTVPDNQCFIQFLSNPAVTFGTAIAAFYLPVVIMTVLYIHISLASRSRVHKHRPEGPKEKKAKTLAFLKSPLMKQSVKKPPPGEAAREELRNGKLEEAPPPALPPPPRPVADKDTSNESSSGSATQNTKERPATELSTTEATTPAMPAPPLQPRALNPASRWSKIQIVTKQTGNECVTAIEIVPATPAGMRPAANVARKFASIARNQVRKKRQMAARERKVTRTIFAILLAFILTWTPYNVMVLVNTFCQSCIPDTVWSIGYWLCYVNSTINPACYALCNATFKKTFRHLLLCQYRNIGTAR
Method: as §1, §2, §3

[1] = at 10,000 nM, N = 5, [3H]-DAMGO 1.20 nM, read-out: Primary Binding %MOR
[2] = primary binding, 10,000 nM, last figure of the line = mean of the 4 before it, read-out: MOR, PDSP raw data, mean

T2 sequence (P35372 whole entry): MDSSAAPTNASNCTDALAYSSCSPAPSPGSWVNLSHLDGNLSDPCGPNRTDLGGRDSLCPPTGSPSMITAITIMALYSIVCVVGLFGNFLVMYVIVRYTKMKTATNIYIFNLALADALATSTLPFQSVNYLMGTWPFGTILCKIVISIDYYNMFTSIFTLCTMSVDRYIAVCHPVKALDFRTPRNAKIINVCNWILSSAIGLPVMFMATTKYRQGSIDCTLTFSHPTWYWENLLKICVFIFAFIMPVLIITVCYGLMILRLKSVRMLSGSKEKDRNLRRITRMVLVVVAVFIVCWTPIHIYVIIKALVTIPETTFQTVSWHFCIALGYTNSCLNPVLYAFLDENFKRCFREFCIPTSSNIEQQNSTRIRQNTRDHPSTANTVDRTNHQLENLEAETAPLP
T4 sequence (P28566 whole entry): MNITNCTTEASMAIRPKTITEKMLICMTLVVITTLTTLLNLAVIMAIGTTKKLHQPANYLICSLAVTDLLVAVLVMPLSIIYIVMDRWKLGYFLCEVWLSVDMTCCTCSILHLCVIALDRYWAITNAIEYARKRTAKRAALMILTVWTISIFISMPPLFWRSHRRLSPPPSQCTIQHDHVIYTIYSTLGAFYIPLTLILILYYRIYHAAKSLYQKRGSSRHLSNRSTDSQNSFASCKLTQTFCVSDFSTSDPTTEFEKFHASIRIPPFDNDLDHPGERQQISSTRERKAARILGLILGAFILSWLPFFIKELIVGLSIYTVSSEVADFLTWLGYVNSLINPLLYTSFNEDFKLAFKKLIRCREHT
T3 sequence (P28223 whole entry): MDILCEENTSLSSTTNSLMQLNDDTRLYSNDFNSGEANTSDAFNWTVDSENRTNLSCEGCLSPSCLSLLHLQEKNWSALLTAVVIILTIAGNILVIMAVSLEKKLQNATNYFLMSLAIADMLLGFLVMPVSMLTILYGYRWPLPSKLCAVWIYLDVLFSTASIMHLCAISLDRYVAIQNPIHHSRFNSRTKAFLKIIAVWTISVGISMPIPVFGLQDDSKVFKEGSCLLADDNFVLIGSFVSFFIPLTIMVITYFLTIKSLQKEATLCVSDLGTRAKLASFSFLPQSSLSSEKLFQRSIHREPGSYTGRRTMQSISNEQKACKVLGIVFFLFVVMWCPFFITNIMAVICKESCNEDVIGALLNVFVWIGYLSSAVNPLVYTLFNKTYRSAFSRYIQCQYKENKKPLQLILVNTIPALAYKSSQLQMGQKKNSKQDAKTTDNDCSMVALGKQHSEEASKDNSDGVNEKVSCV
T6 sequence (P35462 whole entry): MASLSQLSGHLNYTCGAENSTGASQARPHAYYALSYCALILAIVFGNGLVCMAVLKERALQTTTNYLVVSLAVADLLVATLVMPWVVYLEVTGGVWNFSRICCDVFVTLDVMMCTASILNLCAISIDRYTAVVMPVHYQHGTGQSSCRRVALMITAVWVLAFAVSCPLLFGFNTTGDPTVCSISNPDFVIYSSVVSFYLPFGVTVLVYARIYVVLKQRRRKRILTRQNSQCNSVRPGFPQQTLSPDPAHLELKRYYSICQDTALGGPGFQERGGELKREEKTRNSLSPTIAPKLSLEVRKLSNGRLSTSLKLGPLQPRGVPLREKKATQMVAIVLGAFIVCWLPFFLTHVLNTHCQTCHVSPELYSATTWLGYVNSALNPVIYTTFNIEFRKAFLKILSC
T5 sequence (P30989 whole entry): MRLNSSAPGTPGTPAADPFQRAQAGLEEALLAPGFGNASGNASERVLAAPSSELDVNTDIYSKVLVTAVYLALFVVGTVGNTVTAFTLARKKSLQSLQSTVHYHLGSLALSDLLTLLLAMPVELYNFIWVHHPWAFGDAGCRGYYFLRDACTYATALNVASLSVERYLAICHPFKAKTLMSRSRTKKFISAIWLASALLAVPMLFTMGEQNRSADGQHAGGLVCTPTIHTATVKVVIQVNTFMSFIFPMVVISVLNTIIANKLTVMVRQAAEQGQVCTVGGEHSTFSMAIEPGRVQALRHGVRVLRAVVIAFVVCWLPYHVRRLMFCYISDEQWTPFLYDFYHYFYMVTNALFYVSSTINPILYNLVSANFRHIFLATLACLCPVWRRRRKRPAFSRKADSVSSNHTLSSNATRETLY

| Structure (SMILES) | inhibition at 10 µM (Alpha2A) | NMDA, PDSP raw data, mean (NMDA) | inhibition at 10 µM (MOR; [1]) | inhibition at 10 µM (MOR; [2]) | Sigma 2, PDSP raw data, mean (Sigma 2) | inhibition at 10 µM (5-HT2A) | 5-HT1E, PDSP raw data, mean (5-HT1E) | inhibition at 10 µM (NTS1) | inhibition at 10 µM (D3) | inhibition at 10 µM (M4) |
| --- | --- | --- | --- | --- | --- | --- | --- | --- | --- | --- |
| C[C@H]1N=C(c2ccccc2F)c2cc(-c3ccccc3)ccc2-n2cnc(C(=O)N(C)C)c21 [Compound 5, (R)-6-(2′-Fluorophenyl)-N,N,4-trimethyl-8-phenyl-4H-benzo[f]imidazo[1,5-a][1,4]diazepine-3-carboxamide] | 5.99% | 43.17% | -11.2 ± 5.72% | -11.2% | 43.63% | 10.7% | 34.07% | -16.7% | -3.57% | -3.29% |
| C#Cc1ccc2c(c1)C(c1ccccn1)=N[C@@H](C)c1c(C(=O)N(C)C)ncn1-2 [Compound 31, (S)-8-Ethynyl-N,N,4-trimethyl-6-(pyridin-2′-yl)-4H-benzo[f]imidazo[1,5-a][1,4]diazepine-3-carboxamide] | -7.15% | 17.3% | 4.55 ± 12.5% | 4.55% | -12.63% | -13.1% | 18.14% | 0.28% | 1.06% | 3.2% |
